Among the data in BindingDB's records for doi:10.1021/jm00006a011 (Merck Sharp & Dohme Research Laboratories, 1995) are IC50 values, retold here.

Each structure is given as a SMILES string.

The test concerns the target Substance-P receptor (Homo sapiens, UniProt P25103). The experiment in a line: Binding affinity at human Tachykinin receptor 1 expressed in CHO cells by [125 I][…]-substance P displacement.

Sequence of Substance-P receptor (P25103 whole entry): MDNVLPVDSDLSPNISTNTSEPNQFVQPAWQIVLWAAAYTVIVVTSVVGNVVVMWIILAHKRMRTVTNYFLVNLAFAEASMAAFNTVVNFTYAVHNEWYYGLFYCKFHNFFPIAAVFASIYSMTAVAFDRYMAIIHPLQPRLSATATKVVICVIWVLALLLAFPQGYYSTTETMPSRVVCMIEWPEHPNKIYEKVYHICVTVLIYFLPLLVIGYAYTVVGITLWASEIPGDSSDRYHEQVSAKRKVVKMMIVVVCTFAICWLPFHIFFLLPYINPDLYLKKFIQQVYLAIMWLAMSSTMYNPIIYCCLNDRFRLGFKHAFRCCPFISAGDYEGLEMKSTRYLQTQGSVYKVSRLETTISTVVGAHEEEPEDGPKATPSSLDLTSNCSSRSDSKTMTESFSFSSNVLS

As usually defined, the IC50 is the concentration needed to halve the response being measured. A higher IC50 goes with lower potency. In the case of `O=c1oc(Cc2c[nH]c3ccccc23)c(O)n1Cc1cc(C(F)(F)F)cc(C(F)(F)F)c1`, the half-maximal inhibitory concentration (IC50) turned out to be 22 nM.
